T1: DmBCA (Drosophila melanogaster, UniProt Q9VHJ5)
T1 construct: gene CAHbeta; C-terminal thrombin site and His6; baculovirus/Sf9, purified from culture supernatant; thrombin treatment to remove tag; 28/27 kDa before/after thrombin; dimer
T1 sequence (Q9VHJ5 1-255): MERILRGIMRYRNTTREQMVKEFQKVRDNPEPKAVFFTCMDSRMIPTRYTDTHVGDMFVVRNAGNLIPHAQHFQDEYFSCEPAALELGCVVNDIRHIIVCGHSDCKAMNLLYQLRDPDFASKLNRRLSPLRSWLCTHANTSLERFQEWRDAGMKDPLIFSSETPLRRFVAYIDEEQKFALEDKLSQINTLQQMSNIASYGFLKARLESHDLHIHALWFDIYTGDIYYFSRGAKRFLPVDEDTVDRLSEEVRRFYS

B1: Drosophila melanogaster β-carbonic anhydrase (DmBCA) (enzyme, UniProt Q9VHJ5 1-255, looked up)
chain: T1 sequence (Q9VHJ5 1-255)
notes: cDNA from S2 cells; A thrombin cleavage site stands between DmBCA and the C-terminal His6 (primer R4 encodes LVPRGS-HHHHHH after the last residue); also called D. melanogaster β-CA; Drosophila β-CA; source: Sf9 insect cells (baculovirus), purified from the culture supernatant (Probond nickel-chelating resin)

Results on 16 molecules are retold here after paper PMC2918522, “Characterization of the first beta-class carbonic anhydrase from an arthropod (Drosophila melanogaster) and phylogenetic analysis of beta-class carbonic anhydrases in invertebrates” (BMC Biochemistry, 2010).

For the first series, the target named is T1, DmBCA. The experiment in a line: stopped-flow CO2 hydration assay. It counts as biochemical.
In the case of `O=S(O)O` [HSO3^-], the Ki (in general, a dissociation constant, usually derived from enzyme kinetics or from competition with a known ligand) came to 1290 µM.

In turn, `N#CS` [SCN^-] displayed an inhibition constant (Ki) of 1280 µM.

`O=NO` [NO2^-] registered a Ki of 28600 µM.

For `O=C(O)O` [HCO3^-], the inhibitory constant (Ki) came to 26900 µM.

Take `I` [I^-]: the Ki worked out at 1180 µM.

Molecule `Cl` [Cl^-] yielded an inhibition constant (Ki) of 970 µM.

Turning to `NS(=O)(=O)O` [H2NSO3H], affinity was put at a Ki of 2450 µM.

`O=[N+]([O-])O` [NO3^-] gave a Ki of 43700 µM.

The molecule `S` [HS^-] had a Ki of 1010 µM.

For the molecule `Br` [Br^-], the Ki was found to be 1040 µM.

In turn, `F` [F^-] came in with a Ki of 800 µM.

For `O=S(=O)(O)O` [SO4^2-], the inhibition constant (Ki) amounted to 1360 µM.

`N#CO` [CNO^-]: the affinity, expressed as Ki, was 730 µM.

For `NS(N)(=O)=O` [H2NSO2NH2], the Ki was 150 µM.

In turn, `OB(O)c1ccccc1` [Ph-B(OH)2] showed a Ki of 22400 µM.

A further series concerns the molecule itself. The experiment in a line: dynamic light scattering + SEC; DLS (Zetasizer ZS): proteins exchanged to 50 mM Na2HPO4 pH 7.0, 100 mM NaCl, temperature scan 4-50°C, mass estimated from the hydrodynamic diameter with a globular protein standard curve; analytical gel filtration: Superdex200 10/300GL, 50 mM Na2HPO4, 650 mM NaCl pH 7.0, 20-30 μg protein per run.
For the molecule B1, the stoichiometry N (usually the number of molecules, sites or subunits per partner or assembly) is 2.
